# Results published in patent US5916914A, “Compounds and method of treating psychosis and schizophrenia” (priority 1997, dated 1999).
# Where a name gives a salt, the structure may show the parent alone.
# Key:
# [1] = target: human dopamine D2 (Long form) receptors (Homo sapiens, UniProt P14416); assay: biochemical; format: binding
# From the text: (§1) A cell line expressing human dopamine D2 (Long form) receptors was purchased from Oregon Health Sciences University, Portland, Oreg. The D2 receptor cDNA was subcloned into an expression vector, pRc/CMV. The plasmids were transfected by electroporation into CHO K1 cells. A single stable transfectant, resistant to the antibiotic G418, was isolated and selected for use in the binding studies. For D4 binding, CHO K1 cells stably transfected to express the human recombinant dopamine D4.2 receptor subtype, as described by Shih, et al., "The expression and functional characterization of human dopamine D4.2 receptor in CHO K1 cells," Soc. Neurosci., 1995;21 (Part 1):621 were used.
# (§2) CHO K1 cells expressing either human D2 and D4.2 receptors were grown in 162 cm^2 culture flasks in F12 medium (Gibco Laboratories, Grand Island, N.Y.) supplemented with 10% fetal bovine serum (FBS, Hyclone, Logan, Utah) in an atmosphere of 5% CO2 /95% air at 37 EC. Cells were grown until confluent, after which growth medium was removed and replaced with 0.02% ethylene diamine tetracetate (EDTA) in a phosphate-buffered saline solution (Sigma Chemical Co., St. Louis, Mo.) and scraped from the flasks. The cells were centrifuged at about 1000×g for 10 minutes at 4° C. and then resuspended in TEM buffer (25 mM Tris-HCL, pH 7.4, 5 mM EDTA, and 6 mM MgCl2) for D2 or the D4.2 buffer (50 mM Tris-HCl, pH 7.4, 5 mM EDTA, 1.5 mM CaCl2, 5 mM KCl, and 120 mM NaCl) and homogenized. The membranes were pelleted by centrifugation at 20000×g at 4° C. for 20 minutes. Then the pellets were resuspended in appropriate buffer at 1 mL/flask and stored at -70° C. until used in the receptor binding assay.
# (§3) After 60 minutes incubation at 25° C., the incubations were terminated by rapid filtration through Whatmann GF/B glass fibre filters (soaked for 1 hour in 0.5% polyethylenimine) on a cell harvester, with three washes of 1 mL ice-cold buffer. Individual filter disks containing the bound ligand were placed in counting vials with 4 mL of scintillation fluid (Ready Gel, Beckman Instrument, Inc., Fullerton, Calif.) and then counted in a Beckman LS-6800 liquid scintillation counter at an efficiency of 45%. Nonspecific binding was defined in presence of 1 mM of haloperidol.
# (§4) Saturation and competition binding data were analyzed using an iterative nonlinear least square curve-fitting Ligand program. […] Experimental compounds were made up as stock solutions in dimethyl sulfoxide (DMSO). […] Each observation was carried out in triplicate. To allow these calculations, Kd values were measured for the interaction of various ligands with the receptor. […]
# [2] = target: T1, human recombinant dopamine D4.2 receptor (Homo sapiens, UniProt P21917, DEL265-296); assay: Receptor binding assay, D4.2 ([^3 H]spiperone)
# T1 construct: expressed in transfected cells
# T1 sequence (P21917 with tags, fused parts or gaps DEL265-296): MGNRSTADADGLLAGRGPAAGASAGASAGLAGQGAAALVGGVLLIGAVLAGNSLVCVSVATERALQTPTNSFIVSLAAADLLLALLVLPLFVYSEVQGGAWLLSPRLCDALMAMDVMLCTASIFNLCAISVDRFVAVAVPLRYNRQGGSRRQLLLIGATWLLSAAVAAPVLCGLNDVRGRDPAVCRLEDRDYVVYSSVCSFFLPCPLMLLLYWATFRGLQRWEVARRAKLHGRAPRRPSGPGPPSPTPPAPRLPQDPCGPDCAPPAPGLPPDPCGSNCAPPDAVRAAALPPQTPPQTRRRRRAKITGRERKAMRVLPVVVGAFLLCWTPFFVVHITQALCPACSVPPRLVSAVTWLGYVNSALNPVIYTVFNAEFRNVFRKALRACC
# From the text: as §1, §2, §3, §4
# human dopamine D2 (Long form) receptors, sequence (P14416 whole entry): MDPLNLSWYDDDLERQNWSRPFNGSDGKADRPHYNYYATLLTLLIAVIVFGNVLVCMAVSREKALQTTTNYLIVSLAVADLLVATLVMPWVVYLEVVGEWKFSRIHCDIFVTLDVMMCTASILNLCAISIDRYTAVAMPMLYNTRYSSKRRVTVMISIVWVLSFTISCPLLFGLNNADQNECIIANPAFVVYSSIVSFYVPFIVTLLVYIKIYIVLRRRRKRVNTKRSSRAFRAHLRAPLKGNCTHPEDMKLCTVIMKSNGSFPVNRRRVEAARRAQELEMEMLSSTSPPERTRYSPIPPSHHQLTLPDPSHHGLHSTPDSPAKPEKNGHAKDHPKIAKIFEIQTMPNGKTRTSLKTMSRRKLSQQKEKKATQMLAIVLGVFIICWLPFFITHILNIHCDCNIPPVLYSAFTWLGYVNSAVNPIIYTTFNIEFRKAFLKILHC
smiles,measurement,setting,value
"c1ccc(OCCCNCCOc2ccc3ncccc3c2)cc1 [Example 2a, (3-Phenoxy-propyl)-[2-quinolin-6-yloxy)-ethyl]-amine hydrochloride]",Ki,[1],578 nM
same,Ki,[2],12.8 nM
"O=c1ccc2ccc(OCCNCCCOc3ccccc3)cc2o1 [Example 2c, 7-[2-(3-Phenoxy-propylamino)-ethoxy]-chromen-2-one hydrochloride]",Ki,[1],249 nM
same,Ki,[2],1.6 nM
"c1ccc(OCCCNCCOc2ccc3oc4ccccc4c3c2)cc1 [Example 2d, [2-(Dibenzofuran-2-yloxy)-ethyl]-(3-phenoxypropyl)-amine hydrochloride]",Ki,[2],78.7 nM
"Cc1cc(=O)oc2cc(OCCNCCCOc3ccccc3)ccc12 [Example 3, 4-Methyl-7-[2-(3-phenoxy-propylamino)-ethoxy]-chromen-2-one Hydrochloride]",Ki,[1],231 nM
same,Ki,[2],1.9 nM
"Cc1cc(=O)oc2ccc(OCCNCCCOc3ccccc3)cc12 [Example 3a, 4-Methyl-6-[2-(3-phenoxy-propylamino)-ethoxy]-chromen-2-one hydrochloride]",Ki,[2],70.2 nM
"c1ccc(OCCCNCCOc2ccc3occc3c2)cc1 [Example 3b, [2-(Benzofuran-5-yloxy)-ethyl]-(3-phenoxy-propyl)-amine hydrochloride]",Ki,[1],502 nM
same,Ki,[2],1.2 nM
"O=c1ccc2ccc(CNCCNc3ccc(CO)c(Cl)c3)cc2o1 [Example 4a, 7-{[2-(3-Chloro-4-hydroxymethyl-phenylamino)-ethylamino]-methyl}-chromen-2-one]",Ki,[2],95 nM
"O=c1ccc2ccc(CNCCNc3cccc(Cl)c3)cc2o1 [Example 4d, 7-{[2-(3-Chloro-phenylamino)-ethylamino]-methyl}-chromen-2-one dihydrochloride]",Ki,[2],42 nM
"O=c1ccc2cc(CNCCNc3ccccc3)ccc2o1 [Example 4g, 6-[(2-Phenylamino-ethylamino)-methyl]-chromen-2-one]",Ki,[2],311 nM
"O=c1ccc2ccc(CNCCCNc3ccccc3)cc2o1 [Example 4i, 7-[(3-Phenylamino-propylamino)-methyl]-chromen-2-one]",Ki,[2],31 nM
"O=c1ccc2cc(CNCCOc3ccccc3)ccc2o1 [Example 4j, 6-[(2-Phenoxy-ethylamino)-methyl]-chromen-2-one hydrochloride]",Ki,[2],64 nM
"Cc1ccc(OCCNCc2ccc3oc(=O)ccc3c2)cc1 [Example 4k, 6-[(2-p-Tolyloxy-ethylamino)-methyl]-chromen-2-one]",Ki,[1],5880 nM
same,Ki,[2],23.8 nM
"O=c1ccc2cc(CNCCOc3ccc(Cl)cc3)ccc2o1 [Example 4l, 6-{[2-(4-Chloro-phenoxy)-ethylamino]-methyl}-chromen-2-one]",Ki,[1],4870 nM
same,Ki,[2],13.5 nM
"O=c1ccc2ccc(CNCCOc3ccccc3)cc2o1 [Example 4m, 7-[(2-Phenoxy-ethylamino)-methyl]-chromen-2-one]",Ki,[2],43 nM
"Cc1ccc(OCCNCc2ccc3ccc(=O)oc3c2)cc1 [Example 4n, 7-[(2-p-Tolyloxy-ethylamino)-methyl]-chromen-2-one]",Ki,[1],195 nM
same,Ki,[2],3.9 nM
"O=c1ccc2ccc(CNCCOc3ccc(Cl)cc3)cc2o1 [Example 4o, 7-{[2-(4-Chloro-phenoxy)-ethylamino]-methyl}-chromen-2-one]",Ki,[1],286 nM
same,Ki,[2],9.5 nM
"O=c1ccc2ccc(CNCCSc3ccccc3)cc2o1 [Example 4p, 7-[(2-Phenylsulfanyl-ethylamino)-methyl]-chromen-2-one hydrochloride]",Ki,[2],394 nM
"O=c1ccc2ccc(CNCCCc3ccccc3)cc2o1 [Example 4q, 7-[(3-Phenyl-propylamino)-methyl]-chromen-2-one]",Ki,[2],60 nM
"O=c1ccc2ccc(CNCCCOc3ccc(Cl)cc3)cc2o1 [Example 4r, 7-{[3-(4-Chloro-phenoxy)-propylamino]-methyl}-chromen-2-one]",Ki,[2],92 nM
"Cc1ccc(OCCCNCc2ccc3ccc(=O)oc3c2)cc1 [Example 4s, 7-[(3-p-Tolyloxy-propylamino)-methyl]-chromen-2-one]",Ki,[2],234 nM
"O=c1ccc2cc(CNCCCOc3ccccc3)ccc2o1 [Example 4t, 6-[(3-Phenoxy-propylamino)-methyl]-chromen-2-one]",Ki,[1],1070 nM
same,Ki,[2],20 nM
